The values below come from patent US20090075976A1, “Association between an anti-atherothrombotic and an angiotensin-converting enzyme inhibitor” (LES LABORATOIRES SERVIER, priority 2007, published 2009).

Assay [1] relates to human E-selectin promoter. Nature of the assay: E-selectin promoter activity (luciferase reporter) in TNF-α-induced HUVEC cells. The conditions noted are these: for Activity in cpm %/Control MEAN ± SDM: TNF-α-induced (100 U/ml); for effect on expression of the E-selectin gene: compound alone, at the concentrations tested (up to 100 μM), TNF-α. In kind it is cell-based. How it is done: The study is carried out on human endothelial cells HUVEC (Human Umbilical Vein Endothelial Cells, Clonetics Co). The cells are cultured in an EBM2 medium (Endothelial Basal Medium, Clonetics Co) supplemented with 2% FCS (Fœtal Calf Serum) and EGM2 (Endothelial Growth Medium, Clonetics Co).
An 850 bp fragment, corresponding to the human E-selectin promoter, extending from the nucleotides at positions −800 to +50 (accession no. M64485; Tamaru et al., E-selectin gene expression is induced synergistically with the coexistence of activated classic protein kinase C and signals elicited by interleukin-1β but not tumor necrosis factor-α; 1999, J. Biol. Chem, 274, 3753-3763), was amplified by PCR and sub-cloned. In a final reaction volume of 100 μl, 5 units of native Pyrococcus furiosus (Pfu) DNA polymerase (Stratagene) were placed in the presence of 1 μg of human genomic DNA (Clontech), 200 μM of dNTP (deoxynucleotide triphosphate) (Clontech) and 200 ng of primers in a medium containing the buffer specific to the enzyme. The set of primers used is as follows: […]
The PGL3/E-selectin plasmid is transfected into HUVEC cells before the fourth passage. Transfection is carried out in plates having cells at 50% confluence, depositing Lipofectin® (Invitrogen) and 3 μg of PGL3/E-selectin plasmid in each of the wells. The Lipofectin® (6 μg/ml) is previously activated for 30 minutes in an OPTI-MEM medium (GIBCO™) and then brought into contact for 15 minutes with the plasmids previously diluted with the medium. The cells are incubated for 4 hours at 37° C. in an atmosphere containing 5% CO2 and […]. The transfection medium is withdrawn and replaced overnight by an enriched culture medium in order to stabilise the cells.
Expression of the reporter genes is induced over 4 hours in an M199 medium without serum (GIBCO™). The cells are scratched and lysed in a lysis buffer (Dual-Luciferase® kit, Promega) and then held at −20° C.
The induction phase is 4 hours for the HUVEC cells in the presence of 100 U/ml of Tumour Necrosis Factor-α (TNF-α). During that induction phase, there are added different concentrations of, on the one hand: • perindoprilate (0 to 100 µM), terutroban sodium salt (0 to 100 μM), or terutroban sodium salt (30 μM)+different concentrations of perindoprilate (10, 30 and 100 μM) (Table 1) and, on the other hand: • ramiprilate (0 to 100 μM), terutroban sodium salt (0 to 100 μM), or terutroban sodium salt (10 μM)+different concentrations of ramiprilate (30 and 100 μM) (Table 2).
The E-selectin promoter activity is determined by quantification of the luciferase activity produced (Dual-Luciferase® kit, Promega). A solution of luciferin, the substrate of the firefly luciferase, is added to each well. […] The plate is incubated for 10 minutes in the dark because the luciferase activity is light-sensitive, and then a luminometer reading is started in order to quantify the photons emitted (Wallac, Perkin Elmer), the result obtained being the average cpm (counts per minute) over a period of 5 seconds.
(§1) The activity of the E-selectin promoter is measured under control conditions and in the presence of products in the induced state.
as §1
On the technique in general: A reporter such as luciferase makes a cellular process visible.

For assay [2], the system named is CD rats. The assay is described as follows: Arterial thrombosis in the rat (FeCl3-induced, aorta). The format is in vivo. How it is done: The thrombosis technique used is that of Tanaka and co-workers (Eur. J. Pharmacol., 2008; 401, 413-18). CD rats (350-375 g) are anaesthetised using pentobarbital 50 mg/kg IP and are placed on a thermostatically controlled blanket. After laparotomy, the aorta is exposed. […] Some animals are treated with terutroban (compound A) in the form of the sodium salt at a dose of 0.1 mg/kg, others with perindopril (compound B) in the form of the tert-butylamine salt at a dose of 1 mg/kg, and others with terutroban in the form of the sodium salt (compound A) at a dose of 0.1 mg/kg and perindopril (compound B) in the form of the tert-butylamine salt at 1 mg/kg.

For assay [3], the system named is CD rats. Nature of the assay: Arterial pressure in the anaesthetised rat. The settings on record: recorded 1 hour after treatment, controls 131±7 mmHg. The format is in vivo. As for the experimental part: After anaesthesia using pentobarbital (50 mg/kg IP), the animal is placed on a thermostatically controlled blanket. The carotid artery is exposed and a catheter is introduced in order to monitor the arterial pressure with the aid of a Gould sensor connected to AcqKnowledge software. […] Some animals are treated with terutroban (compound A) in the form of the sodium salt at a dose of 0.1 mg/kg, others with perindopril (compound B) in the form of the tert-butylamine salt at a dose of 0.3 mg/kg, and others with terutroban (compound A) in the form of the sodium salt at 0.1 mg/kg and perindopril (compound B) in the form of the tert-butylamine salt at 0.3 mg/kg.

A further assay concerns renal fibronectin. Nature of the assay: Expression of renal fibronectin in diabetic ApoE−/− mice (real-time PCR). In kind it is in vivo. The settings on record: 6 weeks. How it is done:
(§2) Four groups of 9 mice deficient in apolipoprotein E (ApoE^−/−, spontaneously developing atheroma plaques in their aortas) were used in this study. At the age of 8 weeks, the mice are made diabetic by 5 intraperitoneal injections of 70 mg/kg of streptozotocin over 5 days. At the ninth week, the animals are divided into four groups: an untreated control group, a group treated with terutroban (compound A) sodium salt (1 mg/kg/day in the food), a group treated with perindopril (compound B) tert-butylamine salt (0.1 mg/kg/day in the drinking water), and a group treated with the association of terutroban (compound A) sodium salt (1 mg/kg/day in the food) and perindopril (compound B) tert-butylamine salt (0.1 mg/kg/day in the drinking water). For the expression of renal fibronectin, the mice are treated for 6 weeks and then sacrificed after anaesthesia using isoflurane. For the expression of aortic VCAM-1, the mice are treated for 13 weeks and then sacrificed. The aortas and the right-side kidneys are removed, dissected and frozen in liquid nitrogen. […] Expression of aortic VCAM-1 and expression of renal fibronectin are quantified by real-time PCR and normalised with respect to 3 reference genes: β-actin, hypoxanthine-guanine phosphoribosyl transferase (HPRT) and glyceraldehyde phosphate dehydrogenase (GAPDH). […]
Background: Real-time PCR tracks product formation cycle by cycle.

A further assay relates to aortic VCAM-1. Nature of the assay: Expression of aortic VCAM-1 in diabetic ApoE−/− mice (real-time PCR). The format is in vivo. The conditions noted are these: 13 weeks. As for the experimental part: as §2, with “of” for “of renal fibronectin, the mice are treated for 6 weeks and then sacrificed after anaesthesia using isoflurane. For the expression of”, “nitrogen. The tissues are cryo-ground and total RNA is extracted using the RNeasy® micro kit (Qiagen).” for “nitrogen.”

A further assay has as its system VCAM-1. The conditions noted are these: diabetic atheromatous Apo E−/− mice; cited from earlier work.
The mark [4] stands for this setting: 0.1 mg/kg/day in the drinking water.

Counter-ions that a name gives are not always drawn.

Take `Cc1ccc2c(c1CCC(=O)O)CC[C@@H](NS(=O)(=O)c1ccc(Cl)cc1)C2` [Compound A, sodium salt, 3-[(6R)-6-[[(4-chlorophenyl)sulphonyl]amino]-2-methyl-5,6,7,8-tetrahydronaphth-1-yl]propanoic acid]: the “Activity in cpm %/Control MEAN ± SDM” value in assay [1] (compound alone 10 μM) is given as 105.8 ± 7.9%; in assay [1] (compound alone 30 μM) it was 99.5 ± 9.1%; in assay [1] (compound alone 100 μM) it was 88.8 ± 8.9%. Also, in assay [1], the “effect on expression of the E-selectin gene” value was “no effect”. Moreover, the weight of clot in the assay with CD rats [2] (0.1 mg/kg, controls 17.1±1.3 mg) was 16.8 ± 1.3 mg. This compound gave an arterial pressure in the assay with CD rats [3] (0.1 mg/kg) of 126±7 mmHg. Further, the “expression of the renal fibronectin gene versus 100% without treatment” value in the assay with renal fibronectin (1 mg/kg/day in the food) is recorded as 69±16%. For the same compound, the “residual expression of the aortic VCAM-1 gene versus 100% without treatment” value with aortic VCAM-1 (1 mg/kg/day in the food) is recorded as 88±22%. For the same compound, the “endothelial expression of the adhesion molecule VCAM-1” value in the assay on VCAM-1 was “significantly reduced”.

As for `CCC[C@H](N[C@@H](C)C(=O)N1[C@H](C(=O)O)C[C@@H]2CCCC[C@@H]21)C(=O)O` [Compound B, active metabolite, perindoprilate], the figures for the “Activity in cpm %/Control MEAN ± SDM” value in assay [1] (compound alone 10 μM), in assay [1] (compound alone 30 μM) and in assay [1] (compound alone 100 μM) were 99.5 ± 7.8%, 100.3 ± 9.2% and 82.8 ± 11.5%, respectively. The “effect on expression of the E-selectin gene” value in assay [1] is recorded as “no effect”.

As to `C[C@H](N[C@@H](CCc1ccccc1)C(=O)O)C(=O)N1[C@H](C(=O)O)C[C@@H]2CCC[C@@H]21` [Compound C, active metabolite, ramiprilate], the entries for the “Activity in cpm %/Control MEAN ± SDM” value in assay [1] (compound alone 30 μM) and in assay [1] (compound alone 100 μM) were 111.1 ± 17.2% and 114.6 ± 38.9%, respectively. In assay [1], the “effect on expression of the E-selectin gene” value is “no effect”.

With `CCC[C@H](N[C@@H](C)C(=O)N1[C@H](C(=O)O)C[C@@H]2CCCC[C@@H]21)C(=O)OCC` [perindopril], the weight of clot in the assay with CD rats [2] (1 mg/kg, controls 15.6±0.7 mg) is 15.2 ± 1.1 mg. In the assay with CD rats [3] (0.3 mg/kg), this compound showed an arterial pressure of 120±9 mmHg. For the same compound, in the assay with renal fibronectin (setting [4]), the “expression of the renal fibronectin gene versus 100% without treatment” value is 86±9.9%. Besides, the “residual expression of the aortic VCAM-1 gene versus 100% without treatment” value in the assay with aortic VCAM-1 (setting [4]) was 76±21%.
